Laboratory results published in US8420119B2, “Drug composition for treating tumor with polymeric micelle encapsulating anti-neoplastic” (Industrial Technology Research Institute, priority 2009, dated 2013).
≈ marks a conversion by molar mass, not a printed value.

What was measured:
[1] = tested on: Human colon cancer HT29 cells; assay: In vivo pharmaceutical efficiency comparison of CCP201 with free CPT11, HT29 tumor; set-up: species or system immunodeficiency mice
Protocol: Human colon cancer HT29 cells were implanted subcutaneously at the dorsal muscles of immunodeficiency mice. […] The administration frequency was twice a week and five times in total. The tumor size and weight of each mouse was monitored. The tumor size was measured and calculated according to the formula V=½ ab^2, wherein V is the volume of the tumor, a is the longest diameter of the tumor, and b is the shortest diameter of the tumor.

[2] = tested on: Human colon cancer HT29 cells; assay: In vivo pharmaceutical efficiency comparison of SCP201 with free CPT11, HT29 tumor; set-up: species or system immunodeficiency mice
Protocol: (§1) Human colon cancer HT29 cells were implanted subcutaneously at the dorsal muscles of immunodeficiency mice. […] The administration frequency was twice a week and five times in total. The tumor size and weight of each mouse was monitored. The tumor size was measured and calculated according to the formula V=1/2 ab^2, wherein V is the volume of tumor, a is the longest diameter of the tumor, and b is the shortest diameter of the tumor. Human colon cancer Colo205 cells were also tested by the same method described above, except that the mice were divided into 6 groups.

[3] = tested on: Human colon cancer Colo205 cells; assay: In vivo pharmaceutical efficiency comparison of SCP201 with free CPT11, Colo205 tumor; set-up: species or system immunodeficiency mice
Protocol: as §1

[4] = tested on: A549; assay: MTT assay A549; type: cell-based, human; conditions: Lung, A549, 72 hours
Protocol: (§2) Various human cancer lines, such as A549, AS2, and H460, were implanted onto multi-well plates and Dulbecco's Modified Eagle Media (high glucose) with 10% of fetal bovine serum and 1% of P/S being added to each well. […] Then a 20 μL of 0.5 mg/ml MTT (3-(4,5-dimethylthiazol-2-yl)-2,5-diphenyltetrazolium bromide) solution was added to each well to start the reaction. After 2 hours, the suspension of each well was removed and DMSO was added into the well to dissolve formazan, which was formed during the reaction. The living cell concentration was then obtained by analyzing the OD570 and OD600 data of each well.

[5] = tested on: AS2; assay: MTT assay AS2; type: cell-based, human; conditions: Lung, AS2, 72 hours
Protocol: as §2

[6] = tested on: H460; assay: MTT assay H460; type: cell-based, human; conditions: Lung, H460, 72 hours
Protocol: as §2

[7] = tested on: HT29; assay: MTT assay HT29; type: cell-based, human; conditions: Colorectal, HT29, 72 hours
Protocol: as §2

[8] = tested on: Colo 205; assay: MTT assay Colo 205; type: cell-based, human; conditions: Colorectal, Colo 205, 72 hours
Protocol: as §2

[9] = tested on: OVCAR-3; assay: MTT assay OVCAR-3; type: cell-based, human; conditions: Ovarian, OVCAR-3, 72 hours
Protocol: as §2

[10] = tested on: RPMI2650; assay: MTT assay RPMI2650; type: cell-based, human; conditions: Nasalseptum, RPMI2650, 72 hours
Protocol: as §2

[11] = tested on: SCC-25; assay: MTT assay SCC-25; type: cell-based, human; conditions: Tongue, SCC-25, 72 hours
Protocol: as §2

[12] = Release test using dialysis bag; type: physicochemical; conditions: dialysis against PBS pH 7.4, 37° C.
Protocol: A 50 μL solution of a pharmaceutical composition, which was prepared according to the method as set forth above, was added into a dialysis bag having a molecular weight cutoff of about 3,500 Daltons, and then was dialyzed against a 50 ml phosphate buffered saline (PBS) (pH 7.4) at 37° C. After 1, 2, 4, and 8 hours of dialysis, 250 μL out-of-bag buffers were taken respectively, and then each was then mixed with 750 μL methanol (in 0.6N HCl). The quantity of each drug, which was released from the polymeric micelle and then dialyzed into the out-of-bag buffer, was determined by HPLC. A 50 μL CPT containing DMSO solution (CPT-DMSO) was used as a control.

[13] = Direct dilution test (remained lactone form); type: physicochemical; conditions: PBS pH 7.4, 37° C.
Protocol: A 150 μL solution of a pharmaceutical composition in accordance with the present disclosure, which was prepared according to the method as set forth above, was mixed with 1350 μL of PBS (pH 7.4), and then incubated at 37° C. After 1, 2, 4, and 8 hours of incubation, 10 μL incubated solutions were taken respectively, and each was mixed with 990 μL of methanol. The quantity of lactone form CPT or SN38 in the mixtures was determined by HPLC. A 150 μL CPT containing DMSO solution (CPT-DMSO) was used as a control.

[14] = In vivo kinetic test of CPT; set-up: species or system SD mice; conditions: SD, mouse, plasma
Protocol: The concentrations of lactone form CPT in bloods over the time were then determined by HPLC.
T1/2 (hr), AUCINF(hr*ng/ml), CL(mL/hr/kg), and Vss (mL/kg) in Table 2 represent half-life time, area under the curve to infinity, clearance, and volume of distribution at steady state, and the units thereof, respectively. The n represents sample number. These parameters can be measured and/or calculated according to the techniques known in the art.

[15] = dose 10 mg/kg, total dose 50 mg/kg
[16] = dose 40 mg/kg, total dose 200 mg/kg
[17] = iv, lactone form CPT, 1 mg/kg vein injection

In the case of `CCc1c2c(nc3ccc(OC(=O)N4CCC(N5CCCCC5)CC4)cc13)-c1cc3c(c(=O)n1C2)COC(=O)[C@]3(O)CC` [CPT11, 7-ethyl-10-[4-(1-piperidino)-1-piperidono]carbonyloxy camptothecin], the “Tumor Size (mm^3) Vol.” value ([1]; day 0, 10 mg/kg) is reported as 469.6 mm^3, the “Tumor Size (mm^3) Vol.” value ([1]; day 4, 10 mg/kg) is reported as 745.8 mm^3 and the “Tumor Size (mm^3) Vol.” value ([1]; day 8, 10 mg/kg) is reported as 723.4 mm^3. The “Tumor Size (mm^3) Vol.” value ([1]; day 11, 10 mg/kg) was 740.8 mm^3, the “Tumor Size (mm^3) Vol.” value ([1]; day 13, 10 mg/kg) was 786.0 mm^3 and the “Tumor Size (mm^3) Vol.” value ([1]; day 15, 10 mg/kg) was 757.5 mm^3. The “Tumor Size (mm^3) Vol.” value ([1]; day 18, 10 mg/kg) was 879.8 mm^3, the “Tumor Size (mm^3) Vol.” value ([1]; day 20, 10 mg/kg) was 902.7 mm^3 and the “Tumor Size (mm^3) Vol.” value ([1]; day 22, 10 mg/kg) was 927.3 mm^3. The “Tumor Size (mm^3) Vol.” value ([1]; day 27, 10 mg/kg) was 1217.6 mm^3, the “Maximum weight loss” value [1, 15] was 27 days and the “Maximum weight loss %” value [1, 15] was 17.3%. For the same compound, the “TIR % (day 21)” value [1, 15] was 35%, the “Tumor Size (mm^3) Vol.” value ([2]; day 0, 10 mg/kg) was 142.8 mm^3 and the “Tumor Size (mm^3) Vol.” value ([2]; day 3, 10 mg/kg) was 227.8 mm^3. The “Tumor Size (mm^3) Vol.” value ([2]; day 6, 10 mg/kg) was 292.7 mm^3, the “Tumor Size (mm^3) Vol.” value ([2]; day 9, 10 mg/kg) was 384.2 mm^3 and the “Tumor Size (mm^3) Vol.” value ([2]; day 12, 10 mg/kg) was 492.0 mm^3. The “Tumor Size (mm^3) Vol.” value ([2]; day 15, 10 mg/kg) was 666.0 mm^3, the “Tumor Size (mm^3) Vol.” value ([2]; day 18, 10 mg/kg) was 853.5 mm^3 and the “Tumor Size (mm^3) Vol.” value ([2]; day 21, 10 mg/kg) was 997.7 mm^3. For the same compound, the “Tumor Size (mm^3) Vol.” value ([2]; day 24, 10 mg/kg) was 1308.5 mm^3, the “Tumor Size (mm^3) Vol.” value ([2]; day 27, 10 mg/kg) was 1732.2 mm^3 and the “Maximum weight loss” value [2, 15] was 27 days. The “Maximum weight loss %” value [2, 15] was 9.4%, the “TIR % (day 21)” value [2, 15] was 23% and the “Tumor Size (mm^3) Vol.” value ([3]; day 0, 40 mg/kg) was 152.1 mm^3. The “Tumor Size (mm^3) Vol.” value ([3]; day 1, 10 mg/kg) was 175.1 mm^3, the “Tumor Size (mm^3) Vol.” value ([3]; day 1, 40 mg/kg) was 184.6 mm^3 and the “Tumor Size (mm^3) Vol.” value ([3]; day 3, 10 mg/kg) was 192.0 mm^3. The “Tumor Size (mm^3) Vol.” value ([3]; day 3, 40 mg/kg) was 239.3 mm^3, the “Tumor Size (mm^3) Vol.” value ([3]; day 6, 10 mg/kg) was 215.0 mm^3 and the “Tumor Size (mm^3) Vol.” value ([3]; day 6, 40 mg/kg) was 215.0 mm^3. For the same compound, the “Tumor Size (mm^3) Vol.” value ([3]; day 8, 10 mg/kg) was 251.2 mm^3, the “Tumor Size (mm^3) Vol.” value ([3]; day 8, 40 mg/kg) was 184.7 mm^3 and the “Tumor Size (mm^3) Vol.” value ([3]; day 10, 10 mg/kg) was 262.1 mm^3. For the same compound, the “Tumor Size (mm^3) Vol.” value ([3]; day 10, 40 mg/kg) was 161.7 mm^3, the “Tumor Size (mm^3) Vol.” value ([3]; day 13, 10 mg/kg) was 263.5 mm^3 and the “Tumor Size (mm^3) Vol.” value ([3]; day 13, 40 mg/kg) was 110.2 mm^3. The “Tumor Size (mm^3) Vol.” value ([3]; day 15, 10 mg/kg) was 274.1 mm^3, the “Tumor Size (mm^3) Vol.” value ([3]; day 15, 40 mg/kg) was 70.9 mm^3 and the “Tumor Size (mm^3) Vol.” value ([3]; day 17, 10 mg/kg) was 293.7 mm^3. The “Tumor Size (mm^3) Vol.” value ([3]; day 17, 40 mg/kg) was 59.1 mm^3, the “Tumor Size (mm^3) Vol.” value ([3]; day 20, 10 mg/kg) was 301.4 mm^3 and the “Tumor Size (mm^3) Vol.” value ([3]; day 20, 40 mg/kg) was 37.8 mm^3. For the same compound, the “Maximum weight loss %” value [3, 15] was 4.2%, the “Maximum weight loss (day)” value [3, 15] was “(18) day” and the “TIR % (day 20)” value [3, 15] was 61%. The “Maximum weight loss %” value [3, 16] was 3.7%, the “Maximum weight loss (day)” value [3, 16] was “(8) day” and the “TIR % (day 20)” value [3, 16] was 95%. For the same compound, the IC50 [4] was 13340 ± 1330 µg/mL (≈ 22.7 mM), the IC50 [5] was 4200 ± 480 µg/mL (≈ 7.16 mM) and the IC50 [6] was 1890 ± 140 µg/mL (≈ 3.22 mM). The IC50 [7] was 1900 µg/mL (≈ 3.24 mM), the IC50 [8] was 6840 ± 990 µg/mL (≈ 11.7 mM) and the IC50 [9] was 16750 ± 1430 µg/mL (≈ 28.6 mM). It also gave an IC50 [10] of 1470 ± 260 µg/mL (≈ 2.51 mM) and an IC50 [11] of 12350 ± 1160 µg/mL (≈ 21.1 mM).

With `CC[C@@]1(O)C(=O)OCc2c1cc1n(c2=O)Cc2cc3ccccc3nc2-1` [CPT-DMSO, camptothecin] the “percentage of released CPT/SN38” value ([12]; 1 hour) was 48.2%, the “percentage of released CPT/SN38” value ([12]; 2 hours) was 73.9% and the “percentage of released CPT/SN38” value ([12]; 4 hours) was 87.2%. For the same compound, the “percentage of remained lactone form CPT and SN38” value ([13]; 2 hours) was 26.4%, the “percentage of remained lactone form CPT and SN38” value ([13]; 4 hours) was 18.1% and the concentration at 0.25 h ([14]; intravenous, 0.25 hour, 1 mg/kg CPT vein injection, read-out: lactone form CPT in plasma) was 19.4 ng/mL. The concentration at 0.5 h ([14]; intravenous, 0.5 hour, 1 mg/kg CPT vein injection, read-out: lactone form CPT in plasma) was 11.6 ng/mL, the concentration at 1 h ([14]; intravenous, 1 hour, 1 mg/kg CPT vein injection, read-out: lactone form CPT in plasma) was 3.1 ng/mL and the concentration at 2 h ([14]; intravenous, 2 hours, 1 mg/kg CPT vein injection, read-out: lactone form CPT in plasma) was 0.3 ng/mL. For the same compound, the AUC(0-inf) [14, 17] was 16 ± 6 ng·h/mL, the clearance [14, 17] was 1160 mL/min/kg and the half-life [14, 17] was 15 ± 6 min. It also gave a Vd ([14]; iv, lactone form CPT, 1 mg/kg vein injection, read-out: Vss) of 23.9 ± 6.2 L/kg.
